These are literature values, as cited in US20230338375A1, “SUBSTITUTED PYRIDAZINONES FOR USE IN THE TREATMENT OF NEUROMUSCULAR DISEASES” (Edgewise Therapeutics, Inc., priority 2020, published 2023).

The subject of the data set is embryos from zebrafish model of DMD. The note with it: Li and Arner, PLoSONE, 2015.

Regarding `Cc1ccc(S(=O)(=O)NCc2ccccc2)cc1` [BTS, N-benzyl-p-tolyl-sulfonamide], the “protection from pathological muscle derangement” value is recorded as “protect muscles from pathological muscle derangement”.
